The text below walks through data of US11718614B2, “Compounds and methods for treatment of hedgehog pathway associated conditions” (Suzhou Mednes Pharma Tech Co., Ltd., priority 2018, dated 2023).

Some results are limits rather than exact numbers.

The first experiment relates to tumor cells from medulloblastoma developed from mice with deficiency in Patched1 gene. In words: MB assay: survival of medulloblastoma tumor cells by MTT after 48 hours. Format: cell-based. The conditions noted are these: Mus musculus, tumor cells treated 48 hours, cell survival by MTT. Here is the method:
To test the effect of the novel compounds on the proliferation of tumor cell, we isolated tumor cells from medulloblastoma developed from mice with deficiency in Patched1 gene. Tumor cells were plated in vitro as previously described, and treated with various concentration of compounds for 48 hours. Tumor cells cultured were then harvested to measure cell survival based on MTT assay. The IC50 value for each compound was calculated using Prism the statistical software.
Table 1 below summarizes the IC50 data obtained using MB assay for exemplary compounds of the invention. IC50 values are shown as A, B, C, or D. A represents IC50 value between 1.0 μM and 5.0 μM; B is between 5.0 μM and 10 μM; C is between 10 μM to 20 μM; and D indicates greater than 20 μM.
Compound `CC(C)c1ccc2c(c1)c(C(=O)C1CCC1)c(CC(C)(C)C(=O)O)n2Cc1ccc(Cl)cc1` [Compound 1, 3-(1-(4-chlorobenzyl)-3-(cyclobutanecarbonyl)-5-isopropyl-1H-indol-2-yl)-2,2-dimethylpropanoic acid] came in with an IC50 of 1 to 5 µM.

As to `CCOC(=O)C(C)(C)Cc1c(C(=O)C2CCC2)c2cc(C(C)C)ccc2n1Cc1ccc(Cl)cc1` [Compound 2, ethyl 3-(1-(4-chlorobenzyl)-3-(cyclobutanecarbonyl)-5-isopropyl-1H-indol-2-yl)-2,2-dimethylpropanoate], the 50% inhibitory concentration (IC50) was above 20 µM.

`CC(C)c1ccc2c(c1)c(SCC(C)(C)C)c(CC(C)(C)C(=O)O)n2Cc1ccc(Cl)cc1` [Compound 3] had an IC50 of 1 to 5 µM.

Compound `CCOC(=O)C(C)(C)Cc1c(SCC(C)(C)C)c2cc(C(C)C)ccc2n1Cc1ccc(Cl)cc1` [Compound 4, ethyl 3-(1-(4-chlorobenzyl)-5-isopropyl-3-(neopentylthio)-1H-indol-2-yl)-2,2-dimethylpropanoate] displayed an IC50 above 20 µM.

The compound `CC(C)c1ccc2c(c1)c([S+]([O-])CC(C)(C)C)c(CC(C)(C)C(=O)O)n2Cc1ccc(Cl)cc1` (stereo not shown) [Compound 5] had an IC50 above 20 µM.

Compound `CCOC(=O)C(C)(C)Cc1c([S+]([O-])CC(C)(C)C)c2cc(C(C)C)ccc2n1Cc1ccc(Cl)cc1` (stereo not shown) [Compound 6] returned an IC50 of 10 to 20 µM.

For the compound `CC(C)c1ccc2c(c1)c(S(=O)(=O)CC(C)(C)C)c(CC(C)(C)C(=O)O)n2Cc1ccc(Cl)cc1` [Compound 7], the half-inhibitory concentration (IC50) fell in the range of 10 to 20 µM.

For the compound `CCOC(=O)C(C)(C)Cc1c(S(=O)(=O)CC(C)(C)C)c2cc(C(C)C)ccc2n1Cc1ccc(Cl)cc1` [Compound 8], the IC50 is 10 to 20 µM.

In the case of `CC(C)C(=O)c1c(CC(C)(C)C(=O)O)n(Cc2ccc(Cl)cc2)c2ccc(C(C)C)cc12` [Compound 9, 3-(1-(4-chlorobenzyl)-3-isobutyryl-5-isopropyl-1H-indol-2-yl)-2,2-dimethylpropanoic Acid], the IC50 fell in the range of 10 to 20 µM.

With `CCOC(=O)C(C)(C)Cc1c(C(=O)C(C)C)c2cc(C(C)C)ccc2n1Cc1ccc(Cl)cc1` [Compound 10, Ethyl 3-(1-(4-chlorobenzyl)-3-isobutyryl-5-isopropyl-1H-indol-2-yl)-2,2-dimethylpropanoate], the IC50 was above 20 µM.

In the case of `CC(C)c1ccc2c(c1)c(SC(C)(C)C)c(CCC(=O)O)n2Cc1ccc(Cl)cc1` [Compound 11, 3-(3-(tert-butylthio)-1-(4-chlorobenzyl)-5-isopropyl-1H-indol-2-yl) Propanoic Acid], the IC50 lay in the range of 5 to 10 µM.

`CCOC(=O)CCc1c(SC(C)(C)C)c2cc(C(C)C)ccc2n1Cc1ccc(Cl)cc1` [Compound 12] had an IC50 above 20 µM.

Regarding `CC(C)c1ccc2c(c1)c(SC(C)(C)C)c(CC(=O)O)n2Cc1ccc(Cl)cc1` [Compound 13, 2-(3-(tert-butylthio)-1-(4-chlorobenzyl)-5-isopropyl-1H-indol-2-yl) Acetic Acid], the IC50 was in the range of 10 to 20 µM.

Compound `COC(=O)Cc1c(SC(C)(C)C)c2cc(C(C)C)ccc2n1Cc1ccc(Cl)cc1` [Compound 14, methyl 2-(3-(tert-butylthio)-1-(4-chlorobenzyl)-5-isopropyl-1H-indol-2-yl)acetate] came in with an IC50 above 20 µM.

Compound `CC(C)c1ccc2c(c1)c(SC(C)(C)C)c(CC(C)(C)C)n2Cc1ccc(Cl)cc1` [Compound 15] came in with an IC50 above 20 µM.

As for `CC(C)c1cnc2c(c1)c(C(=O)C1CCC1)c(CC(C)(C)C(=O)O)n2Cc1ccc(Cl)cc1` [Compound 16, 3-(1-(4-chlorobenzyl)-3-(cyclobutanecarbonyl)-5-isopropyl-1H-pyrrolo-[2,3-b]pyridin-2-yl)-2,2-dimethylpropanoic acid], the IC50 lay in the range of 10 to 20 µM.

`COc1cnc2c(c1)c(SC(C)(C)C)c(CC(C)(C)C(=O)O)n2Cc1ccc(Cl)cc1` [Compound 17]: the IC50 was above 20 µM.

Consider `CCOC(=O)C(C)(C)Cc1c(SC(C)(C)C)c2cc(OC)cnc2n1Cc1ccc(Cl)cc1` [Compound 18], for which the IC50 is above 20 µM.

With `CC(C)(C)CC(=O)c1c(CC(C)(C)C(=O)O)n(Cc2ccc(Cl)cc2)c2ccc(O)cc12` [Compound 19], the IC50 was above 20 µM.

The compound `CC(C)(C)CCc1c(CC(C)(C)CO)n(Cc2ccc(Cl)cc2)c2ccc(O)cc12` [Compound 20] showed an IC50 of 1 to 5 µM.

Regarding `COC(=O)C(C)(C)Cc1c(C(=O)CC(C)(C)C)c2cc(OC)ccc2n1Cc1ccc(Cl)cc1` [Compound 21], the IC50 was above 20 µM.

Regarding `COc1ccc2c(c1)c(C(=O)CC(C)(C)C)c(CC(C)(C)C(=O)O)n2Cc1ccc(Cl)cc1` [Compound 22], the IC50 is above 20 µM.

For `COc1ccc2c(c1)c(C(=O)CC(C)(C)C)c(CC(C)(C)CO)n2Cc1ccc(Cl)cc1` [Compound 23], the IC50 fell in the range of 5 to 10 µM.

Compound `COC(=O)C(C)(C)Cc1c(C(=O)CC(C)(C)C)c2cc(O)ccc2n1Cc1ccc(Cl)cc1` [Compound 24] had an IC50 of 1 to 5 µM.

Compound `CC(C)(C)CC(=O)c1c(CC(C)(C)CO)n(Cc2ccc(Cl)cc2)c2ccc(O)cc12` [Compound 25] came in with an IC50 above 20 µM.

As to `COc1ccc2c(c1)c(CCC(C)(C)C)c(CC(C)(C)CO)n2Cc1ccc(Cl)cc1` [Compound 26], the IC50 was in the range of 1 to 5 µM.

`CC(C)c1ccc2c(C(=O)c3ccc(Cl)cc3)c(CC(C)(C)C(=O)O)n(CC3CCC3)c2c1` [Compound 27]: the IC50 fell in the range of 5 to 10 µM.

Compound `COC(=O)C(C)(C)Cc1c(C(=O)c2ccc(Cl)cc2)c2ccc(C(C)C)cc2n1CC1CCC1` [Compound 28, methyl 3-(3-(4-chlorobenzoyl)-1-(cyclobutylmethyl)-6-isopropyl-1H-indol-2-yl)-2,2-dimethylpropanoate] displayed an IC50 above 20 µM.

`CC(C)(Cc1c(C(=O)c2ccc(Cl)cc2)c2ccc(O)cc2n1CC1CCC1)C(=O)O` [Compound 29, 3-(3-(4-chlorobenzoyl)-1-(cyclobutylmethyl)-6-hydroxy-1H-indol-2-yl)-2,2-dimethylpropanoic Acid] displayed an IC50 above 20 µM.

The compound `CCOC(=O)C(C)(C)Cc1c(C(=O)c2ccc(Cl)cc2)c2ccc(O)cc2n1CC1CCC1` [Compound 30, Ethyl 3-(3-(4-chlorobenzoyl)-1-(cyclobutylmethyl)-6-hydroxy-1H-indol-2-yl)-2,2-dimethylpropanoate] came in with an IC50 above 20 µM.

As to `COc1ccc2c(c1)c(SC(C)(C)C)c(CC(C)(C)c1nc(C)co1)n2Cc1ccc(Cl)cc1` [Compound 31], the IC50 was above 20 µM.

In the case of `Cc1coc(C(C)(C)Cc2c(SC(C)(C)C)c3cc(O)ccc3n2Cc2ccc(Cl)cc2)n1` [Compound 32], the IC50 fell in the range of 1 to 5 µM.

The compound `CCc1noc(C(C)(C)Cc2c(SC(C)(C)C)c3cc(OC)ccc3n2Cc2ccc(Cl)cc2)n1` [Compound 33] came in with an IC50 above 20 µM.

`CCc1noc(C(C)(C)Cc2c(SC(C)(C)C)c3cc(O)ccc3n2Cc2ccc(Cl)cc2)n1` [Compound 34] gave an IC50 of 5 to 10 µM.

`COc1ccc2c(c1)c(SC(C)(C)C)c(CC(C)(C)c1nnnn1C)n2Cc1ccc(Cl)cc1` [Compound 35, 3-(tert-butylthio)-1-(4-chlorobenzyl)-5-methoxy-2-(2-methyl-2-(1-methyl-1H-tetrazol-5-yl)propyl)-1H-indole] yielded an IC50 of 5 to 10 µM.

Compound `COc1ccc2c(c1)c(SC(C)(C)C)c(CC(C)(C)c1nnn(C)n1)n2Cc1ccc(Cl)cc1` [Compound 36, 3-(tert-butylthio)-1-(4-chlorobenzyl)-5-methoxy-2-(2-methyl-2-(2-methyl-2H-tetrazol-5-yl)propyl)-1H-indole] gave a concentration for half-maximal inhibition (IC50) of 5 to 10 µM.

In the case of `Cn1nnnc1C(C)(C)Cc1c(SC(C)(C)C)c2cc(O)ccc2n1Cc1ccc(Cl)cc1` [Compound 37, 3-(tert-butylthio)-1-(4-chlorobenzyl)-2-(2-methyl-2-(1-methyl-1H-tetrazol-5-yl)propyl)-1H-indol-5-ol], the IC50 fell in the range of 10 to 20 µM.

Compound `COc1ccc2c(c1)nc(C(C)c1ccc(Br)cc1)n2Cc1ccccc1Cl` (stereo not shown) [Compound 39] showed an IC50 of 5 to 10 µM.

Regarding `COc1ccc2c(c1)nc(C(C)c1ccc(C#N)cc1)n2Cc1ccccc1Cl` (stereo not shown) [Compound 40], the IC50 was above 20 µM.

Turning to `COc1ccc2c(c1)nc(C(C)c1ccc(C(=O)O)cc1)n2Cc1ccccc1Cl` (stereo not shown) [Compound 41], the IC50 is above 20 µM.

Take `COC(=O)c1ccc(C(C)c2nc3cc(OC)ccc3n2Cc2ccccc2Cl)cc1` (stereo not shown) [Compound 42]: the IC50 is above 20 µM.

`COc1ccc2c(c1)nc(C(C)c1ccc(CO)cc1)n2Cc1ccccc1Cl` (stereo not shown) [Compound 43] displayed an IC50 above 20 µM.

`COc1ccc2c(c1)nc(C(C)c1ccc(CC#N)cc1)n2Cc1ccccc1Cl` (stereo not shown) [Compound 44]: the half-inhibitory concentration (IC50) was above 20 µM.

Take `COc1ccc2c(c1)nc(C(C)c1ccc(CC(=O)O)cc1)n2Cc1ccccc1Cl` (stereo not shown) [Compound 45]: the IC50 is above 20 µM.

`COC(=O)Cc1ccc(C(C)c2nc3cc(OC)ccc3n2Cc2ccccc2Cl)cc1` (stereo not shown) [Compound 46] came in with an IC50 of 10 to 20 µM.

The compound `COc1ccc2c(c1)nc(C(C)c1ccc(CCO)cc1)n2Cc1ccccc1Cl` (stereo not shown) [Compound 47] returned an IC50 above 20 µM.

In turn, `COc1ccc2c(c1)cc(C(C)c1ccc(CC(C)C)cc1)n2Cc1cccc(Cl)c1` (stereo not shown) [Compound 48] gave an IC50 above 20 µM.

In the case of `CC(C)Cc1ccc(C(C)c2cc3cc(O)ccc3n2Cc2cccc(Cl)c2)cc1` (stereo not shown) [Compound 49], the IC50 lay in the range of 1 to 5 µM.

`COc1ccc2c(c1)nc(-c1ccc(CC(C)C)cc1)n2Cc1ccccc1Cl` [Compound 50] yielded an IC50 of 10 to 20 µM.

For `CC(C)Cc1ccc(-c2nc3cc(O)ccc3n2Cc2ccccc2Cl)cc1` [Compound 51], the IC50 lay in the range of 5 to 10 µM.

In the case of `CC(C)Cc1ccc(C(C)c2nc3cc(Br)ccc3n2Cc2ccccc2Cl)cc1` (stereo not shown) [Compound 52], the IC50 is above 20 µM.

The same experiment, now with this note: tumor cells treated 48 hours, cell survival by MTT.
Compound “3-(tert-butylthio)-1-(4-chlorobenzyl)-2-(2-methyl-2-(2-methyl-2H-tetrazol-5-yl)propyl)-1H-indol-5-ol [Compound 38]” showed an IC50 of 1 to 5 µM.
